According to patent publication US20240279302A1, “OLFACTORY RECEPTOR EXPRESSING METHOD AND RESPONSE MEASUREMENT METHOD” (Kao Corporation, priority 2021, published 2024):

T1: OR2T11 (Homo sapiens, UniProt Q8NH01)
T1 sequence (Q8NH01 1-316): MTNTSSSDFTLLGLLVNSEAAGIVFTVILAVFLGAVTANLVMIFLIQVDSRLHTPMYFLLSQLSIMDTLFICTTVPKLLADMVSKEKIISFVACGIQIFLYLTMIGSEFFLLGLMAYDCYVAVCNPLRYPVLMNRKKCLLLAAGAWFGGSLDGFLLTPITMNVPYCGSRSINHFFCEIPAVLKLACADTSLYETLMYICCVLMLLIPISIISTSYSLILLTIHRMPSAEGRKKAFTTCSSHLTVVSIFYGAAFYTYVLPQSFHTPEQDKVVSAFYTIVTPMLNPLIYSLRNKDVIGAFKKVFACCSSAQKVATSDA


Assays:
[1] = biological target: T1, OR2T11; settings: Block E et al., Nat. Prod. Rep. 2017; cited from earlier work
[2] = system: HEK293 cells expressing olfactory receptor; test: Luciferase assay: signal to 100 μM sulfur compounds in the presence or absence of a copper ion; type: cell-based, human; settings: 100 μM odorant
Method: A reaction solution as to each consensus olfactory receptor prepared in Examples described above was prepared according to the composition shown in Table 4, left standing for 20 minutes in a clean bench, and then added to each well of a 96-well plate (Becton, Dickinson and Company). The original olfactory receptor was used as to OR4S2. Composition shown in Table 20 was used as to OR11H2 and OR4E2. Subsequently, 100 μL of HEK293 cells suspended in DMEM (Nacalai Tesque, Inc.) was inoculated at 2×10^5 cells/cm^2 to each well, and cultured for 24 hours in an incubator kept at 37° C. and 5% CO2. Cells expressing no olfactory receptor (Mock) were provided as a control.
[…] Under a copper ion addition condition, the test substance solution was adjusted to contain 30 μM copper(II) chloride (FUJIFILM Wako Pure Chemical Corp.) in addition to the odorant. The cells were cultured for 4 hours in a CO2 incubator and the luciferase gene was expressed sufficiently in the cells. Luciferase activity was measured using Dual-Glo™ luciferase assay system (Promega Corp.) in accordance with the operation manual of the product. A luminescence value derived from firefly luciferase induced by test substance stimulation in each well of the 96-well plate was divided by a luminescence value derived from Renilla luciferase to calculate a value (fluc/hRluc) as a signal, which was then used in analysis. The signal under each transfection condition was normalized with the signal value (fluc/hRluc) under an odorant stimulation-free condition defined as 0% and the signal value (fluc/hRluc) by stimulation with 10 μM forskolin defined as 100%, and used as a response (%) in analysis.

Molecule	response of OR2T11 [1]	responsiveness to methyl mercaptan, dimethyl sulfide, dimethyl disulfide, or dimethyl trisulfide in the presence of a copper ion in comparison with that in the absence [2]
CC(C)(C)S [2-methyl-2-propanethiol]	responds	–
CCCC(C)S (stereo not drawn) [2-pentanethiol]	responds	–
CCC(C)S (stereo not drawn) [2-butanethiol]	responds	–
CC(C)S [2-propanethiol]	responds	–
CC(C)C(C)S (stereo not drawn) [3-methyl-2-butanethiol]	responds	–
CCCS [1-propanethiol]	responds	–
SC1CCCC1 [cyclopentanethiol]	responds	–
CC(C)CS [2-methyl-1-propanethiol]	responds	–
CCCCS [1-butanethiol]	responds	–
CCS [ethanethiol]	responds	–
consensus OR4E2: consensus olfactory receptor polypeptide (protein, OR4E2 consensus-c, consensus olfactory receptor polypeptide) MDSLNQTRVTEFVFLGLTDNWVLEILFFMAFSAIYVLTLLGNILIIVTIVFTPRLHTPMYFFLSNLSFIDICHSSVTVPKMLEGLLLERKTISFDNCIAQLFFLHLFACAEIFLLTIMAYDRYVAICTPLHYPNVMNMRVCVQLVFALWLGGTVHSLVQTFLTIRLPYCGPNIIDSYFCDVPPVIKLACTDTYLTGMLIVSNSGTISLTCFLALVTSYTVILVSLRKQSAEGRRKALSTCSAHFMVVALFFGPCIFIYTRPDTSFSIDKVVSVFYTVVTPLLNPLIYTLRNEEVKSAMKQLRQRQVFFTKSY	–	improved in responsiveness
consensus OR2T29: consensus olfactory receptor polypeptide (protein, OR2T29 consensus-c, consensus olfactory receptor polypeptide) MANITWMANHTGRSDFILVGLFSQSKHPALLCVVIFVVFLMALSGNAILILLIHSDAHLHTPMYFFISQLSLMDVMYISVTVPKMLMDQVMGVNKISAPECGMQMFLYLTLAGSEFFLLAAMAYDRYVAICHPLRYPVLMNHRVCLLLVSGCWFLGSVDGFMLTPITMTFPFCRSREIHHFFCEVPAVMKLSCSDTSLYETLMYLCCVLMLLIPVTVISSSYSFILLTIHRMNSAEGRKKAFATCSSHMTVVILFYGAAVYTYMLPSSYHTPEKDMMVSVFYTILTPVLNPLIYSLRNKDVTGALKKMLNVGSVFQETIK	–	improved in responsiveness
consensus OR4K17: consensus olfactory receptor polypeptide (protein, OR4K17 consensus-c, consensus olfactory receptor polypeptide) MESMELLNQSQVSEFILLGLTSSQDIQFLLFALFSVIYVVTVLGNLLIVVTVFNTPNLNTPMYFLLGNLSFVDMTLASFATPKMILNLVKKQKTISFAGCFTQIFLLHLLGGVEMVLLVSMAYDRYVAICKPLHYMTIMNKKVCVLLVVTSWLLGLLHSGLQIPFVVNLPFCGPNVVDSIFCDLPLVTKLACIDTYFVQIVIVANSGMISLSCFIILLISYSLILITIRNHSSTGQSKARSTLTAHITVVILFFGPCIFIYIWPFSNHSVDKFLAVFYTIITPILNPIIYTLRNKEMKTAMKKLWRAFVNSREDT	–	improved in responsiveness
consensus OR2T27: consensus olfactory receptor polypeptide (protein, OR2T27 consensus-c, consensus olfactory receptor polypeptide) MEWGNYSMYADFVLLGLFSNTRFPWLLFALILLVFVISIASNTVMIILIHIDSRLHTPMYFLLSQLSLMDILYISTIVPKMLVDQVMGQRAISFAGCTAQHFLYLTLAGAEFFLLGLMSYDRYVAICNPLRYPVLMSRKVCLLIVAAAWLGGSIDGFLLTPVTMQFPFCASREINHFFCEVPALLKLSCTDTSAYETAMYVCCIMMLLIPFSVISASYTRILITVYRMSEAEGRRKAVATCSSHMVVVSLFYGAAMYTYVLPHSYHTPEQDKAVSAFYTILTPMLNPLIYSLRNKDVTGALQKALGRCVSSGKVTTF	–	improved in responsiveness
consensus OR2T5: consensus olfactory receptor polypeptide (protein, OR2T5 consensus-c, consensus olfactory receptor polypeptide) MANITWMANHTGKSDFILVGLFSQSKHPALLCVVIFVVFLMALSGNAILILLIHSDAHLHTPMYFFISQLSLMDVMYISVTVPKMLMDQVMGVNKISAPECGMQMFLYLTLAGSEFFLLAAMAYDRYVAICHPLRYPVLMNHRVCLLLASGCWFLGSVDGFMLTPITMTFPFCRSREIHHFFCEVPAVMKLSCSDTSLYETLMYLCCVLMLLIPVTVISSSYSFILLTIHRMNSAEGRKKAFATCSSHMTVVILFYGAAVYTYMLPSSYHTPEKDMMVSVFYTILTPVLNPLIYSLRNKDVTGALKKMLNVGSVFQETIK	–	improved in responsiveness
consensus OR2T4: consensus olfactory receptor polypeptide (protein, OR2T4 consensus-c, consensus olfactory receptor polypeptide) MANITWMANHTGWSDFILVGLFRQSKHPALLCVVIFVVFLMALSGNAVLILLIHSDAHLHTPMYFFISQLSLMDMMYISVTVPKMLLDQVMGVNKISAPECGMQMFLYVTLAGSEFFLLATMAYDRYVAICHPLRYPVLMNHRVCLFLASGCWFLGSVDGFTFTPITMTFPFCRSREIHHFFCEVPAVLKLSCSDTSLYEIFMYLCCVLMLLIPVTVISSSYLFILLTIHRMNSAEGRKKAFATCSSHMTVVILFYGAAIYTYMLPSSYHTPEKDMMVSVFYTILTPVLNPLIYSLRNKDVMGALKKMLNVGPVFQETMK	–	improved in responsiveness
OR4S2: original human olfactory receptor OR4S2, SEQ ID NO: 18 (protein, listed as Homo sapiens) MEKINNVTEFIFWGLSQSPEIEKVCFVVFSFFYIIILLGNLLIMLTVCLSNLFKSPMYFFLSFLSFVDICYSSVTAPKMIVDLLAKDKTISYVGCMLQLFGVHFFGCTEIFILTVMAYDRYVAICKPLHYMTIMNRETCNKMLLGTWVGGFLHSIIQVALVVQLPFCGPNEIDHYFCDVHPVLKLACTETYIVGVVVTANSGTIALGSFVILLISYSIILVSLRKQSAEGRRKALSTCGSHIAMVVIFFGPCTFMYMRPDTTFSEDKMVAVFYTIITPMLNPLIYTLRNAEVKNAMKKLWGRNVFLEAKGK	–	improved in responsiveness
consensus OR2T1: consensus olfactory receptor polypeptide (protein, OR2T1 consensus-c, consensus olfactory receptor polypeptide) MEEYNTSSTDFTFMGLFNRKETSGLLFAIISIIFFTALMANGVMIFLIQTDLRLHTPMYFLLSHLSFIDMMYISTIVPKMLVDYLLGQRTISFVGCTAQHFLYLTLVGAEFFLLGLMAYDRYVAICNPLRYPVLMSRRVCWMIIAGSWFGGSLDGFLLTPITMSFPFCNSREINHFFCEAPAVLKLACADTALYETVMYVCCVLMLLIPFSVVIASYARILTTVHRMSSVEGRKKAFATCSSHMTVVTLFYGAAMYTYMLPHSYHKPAQDKVFSVFYTILTPMLNPLIYSLRNKDVTGALKRALGRFKGPQRVSGGVF	–	improved in responsiveness
